The values below come from US6645283B1, “Anthrapyridone compounds, water-based magenta ink composition, and method of ink-jet printing” (Nippon Kayaku Kabushiki Kaisha, priority 1998, dated 2003).

Common to all, as to assay type: physicochemical
The nature of data set [1]: Solubility in water of the dyestuff. The procedure:
(5) The wet cake obtained in above (4)was added in 1500 parts of methanol, followed by heating at 60-65° C. and stirring for 1 hr. The crystal was filtered to separate, washed with methanol and dried to obtain 42.0 parts of the compound of No.2 as a red crystal. λmax:523 nm (in water, the ammonium salt); solubility in water:100 g/l or above.
(2) The wet cake obtained in this (1) was desalted as in Example 1(5) to obtain 35.0 parts of the compound of No.5 as a red crystal. λmax:522 nm (in water, the ammonium salt); solubility in water:100 g/l or more.
(2) To the reaction solution of the above (1) was added 4.7 parts of the compound of Formula (5) (R1=CH3, R2=H) obtained as in Example 1 (1) and 1(2), followed by raising the temperature and dropping 10% aqueous sodium hydroxide at 60-65° C. to maintain the pH at 4-5 for 1 hr for the reaction. The solution was maintained for 1 hr at pH 6.5-7.0, and filtered to remove a little insoluble matter, to obtain the reaction solution containing the compound of No.15. The reaction solution was diluted with water to obtain 250 parts of the diluted solution, followed by heating at 60-65° C., adding 50 parts of sodium chloride and stirring for about 30 min to deposit crystal. After stirring for 1 hr, the crystal was filtered to separate, washed with 100 parts of 10% aqueous sodium chloride, and dried to obtain 8.9 parts of the sodium salt of the compound of No.15 as a red crystal. λmax:527 nm (in water); solubility in water:100 g/l or more.
The anthrapyridone dyestuff of the present invention is suitable for an ink-jet magenta dyestuff because it has values in hue and brightness close to those of the JNC standard magenta. The dyestuff of the present invention also, when used on a special paper, can provide good light fastness and water fastness. […] Further, the dyestuffs of No.2, No.5 and No.15 obtained in Example 1 to 3 have their water-solubilities of 100 g/l or more under an alkaline condition (pH 8-9) and therefore enable to prepare stable inks for ink-jetting. […]

Data set [2] can be described thus: Light fastness test of recorded image, carbon arc fade meter, 20 hours. Conditions: carbon arc 20 hours; for Light fastness Grade: JIS L-0841 blue scale. From the text: (§1) Each water-based ink composition was produced by preparing the liquids which contain the anthrapyridone compounds (dyestuff components) of No.2, No.5 and No.15 respectively and have a composition of Table 2 as shown below, and then filtering through 0.45 μm membrane filter.
(§2) By using an ink-jet printer (Trade name: PICTY80L, made by NEC KK), ink-jet recordings were done on four types of recording sheets: a plain paper (Printer paper A4, TLB5A4S made by Canon KK), a special paper A (Color BJ Paper LC101 made by Canon KK), a special paper B (Coated paper for color image jetting, STX73A4 made by Sharp KK), and a glossy film (Special glossy film, MJA4SP6 made by Seiko-Epson KK).
A carbon arc fade meter (by Suga Testing Machine Co.) was used to irradiate carbon arc on the recorded images for 20 hours. Grade was judged according to JIS L-0841 blue scale. A color difference (ΔE) between before and after the test was measured by the above color determination system.

Data set [3] is described as follows: Water fastness test of recorded paper, dipped into water, stirred for 2 min, air-dried. Conditions: water 2 min; for Water fastness Grade: JIS color fading grey scale.
Source text: as §1, §2
A recorded paper was dipped into water in a beaker, stirred for 2 min, and air-dried. The change between before and after the test was judged by the JIS color fading grey scale. Alternatively, a color difference (ΔE) between before and after the test was measured by the above color determination system.

Setting [4] is: Plain Paper (PP), color difference before/after.

In turn, `Cn1c(=O)cc2c3c(c(Nc4cc(Nc5nc(NCCS(=O)(=O)O)nc(Nc6cc(C(=O)O)cc(C(=O)O)c6)n5)ccc4S(=O)(=O)O)ccc31)C(=O)c1ccccc1-2` [No.2] registered a solubility in water in data set [1] of at least 100 mg/mL. Besides, the “Light fastness (ΔE)” value in data set [2] (Glossy Film (GF)) is “(3.6)”; in data set [2] (setting [4]) it was “(3.7)”; in data set [2] (Special Paper A (SA)), “(11.1)”; in data set [2] (Special Paper B (SB)) it was “(7.2)”. Moreover, the “Light fastness Grade” value was 4 in data set [2] (Glossy Film (GF)), 4 in data set [2] (Plain Paper (PP)), 3 in data set [2] (Special Paper A (SA)) and 3-4 in data set [2] (Special Paper B (SB)). The “Water fastness (ΔE)” value in data set [3] (Glossy Film (GF)) is “(3.5)”; in data set [3] (setting [4]), “(8.6)”; in data set [3] (Special Paper A (SA)) it was “(2.2)”; in data set [3] (Special Paper B (SB)), “(5.5)”. Moreover, the “Water fastness Grade” value is listed as 4 in data set [3] (Glossy Film (GF)), 3-4 in data set [3] (Plain Paper (PP)), 4 in data set [3] (Special Paper A (SA)) and 3-4 in data set [3] (Special Paper B (SB)).

In the case of `Cn1c(=O)cc2c3c(c(Nc4cc(Nc5nc(NCC(=O)O)nc(Nc6cc(C(=O)O)cc(C(=O)O)c6)n5)ccc4S(=O)(=O)O)ccc31)C(=O)c1ccccc1-2` [No.5], the solubility in water in data set [1] is at least 100 mg/mL. Moreover, the “Light fastness (ΔE)” value is on record as “(10.6)” in data set [2] (Glossy Film (GF)), “(8.7)” in data set [2] (setting [4]), “(14.1)” in data set [2] (Special Paper A (SA)) and “(12.4)” in data set [2] (Special Paper B (SB)). Besides, the “Light fastness Grade” value is reported as 3-4 in data set [2] (Glossy Film (GF)), 3-4 in data set [2] (Plain Paper (PP)), 3 in data set [2] (Special Paper A (SA)) and 3 in data set [2] (Special Paper B (SB)). The “Water fastness (ΔE)” value in data set [3] (Glossy Film (GF)) is “(4.6)”; in data set [3] (setting [4]), “(6.3)”; in data set [3] (Special Paper A (SA)), “(2.4)”; in data set [3] (Special Paper B (SB)) it was “(4.5)”. The “Water fastness Grade” value is 4 in data set [3] (Glossy Film (GF)), 3-4 in data set [3] (Plain Paper (PP)), 4 in data set [3] (Special Paper A (SA)) and 4 in data set [3] (Special Paper B (SB)).

Take `Cn1c(=O)cc2c3c(c(Nc4cc(Nc5nc(Cl)nc(Nc6cc7c(S(=O)(=O)O)cc(S(=O)(=O)O)cc7cc6S(=O)(=O)O)n5)ccc4S(=O)(=O)O)ccc31)C(=O)c1ccccc1-2` [No.15]: the solubility in water in data set [1] was at least 100 mg/mL. Also, the “Light fastness (ΔE)” value in data set [2] (Glossy Film (GF)) is “(2.8)”; in data set [2] (setting [4]), “(8.0)”; in data set [2] (Special Paper A (SA)), “(21.3)”; in data set [2] (Special Paper B (SB)) it was “(8.9)”. Moreover, the “Light fastness Grade” value in data set [2] (Glossy Film (GF)) is listed as 4; in data set [2] (Plain Paper (PP)), 3-4; in data set [2] (Special Paper A (SA)) it was 2; in data set [2] (Special Paper B (SB)), 3-4. The “Water fastness (ΔE)” value in data set [3] (Glossy Film (GF)) is on record as “(3.8)”; in data set [3] (setting [4]), “(58.6)”; in data set [3] (Special Paper A (SA)), “(1.3)”; in data set [3] (Special Paper B (SB)), “(19.3)”. Besides, the “Water fastness Grade” value is 4 in data set [3] (Glossy Film (GF)), 1 in data set [3] (Plain Paper (PP)), 4 in data set [3] (Special Paper A (SA)) and 2 in data set [3] (Special Paper B (SB)).
